Laboratory results: the supplement of paper PMC8612539
Values after ≈ are worked out from the molar mass of the structure shown.

System: Pasteurella multocida
Assay: minimum inhibitory concentration (MIC)
Method: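 Broth microdilution MIC (Sensititre BOPO7F bovine plate, CLSI methods) of 19 antimicrobials against field isolates of P. multocida, M. haemolytica, H. somni (deep nasopharyngeal swabs) and E. coli, Enterococcus spp. (rectal swabs) from weaned dairy heifers. Incubation 16-24 h at 35 C. MIC is the lowest concentration preventing visible growth. Values with <= or > lie at the tested range limits. Trimethoprim-sulfamethoxazole is given as the trimethoprim component of a 1:19 mixture.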

CC[C@H]1OC(=O)C[C@@H](O)[C@H](C)[C@@H](O[C@@H]2O[C@H](C)[C@@H](O[C@H]3C[C@@](C)(O)[C@@H](O)[C@H](C)O3)[C@H](N(C)C)[C@H]2O)[C@@H](CC=O)C[C@@H](C)C(=O)/C=C/C(C)=C/[C@@H]1CO[C@@H]1O[C@H](C)[C@@H](O)[C@@H](OC)[C@H]1OC [Tylosin]
Details	minimum inhibitory concentration [µg/mL]
isolate (source animal id): 10	> 32
isolate (source animal id): 11	> 32
isolate (source animal id): 12	> 32
isolate (source animal id): 19	> 32
isolate (source animal id): 23	> 32
isolate (source animal id): 26	> 32
isolate (source animal id): 98	> 32
isolate (source animal id): 104	> 32
isolate (source animal id): 115	> 32
isolate (source animal id): 117	> 32
isolate (source animal id): 118	> 32
isolate (source animal id): 121	> 32
isolate (source animal id): 124	> 32
isolate (source animal id): 125	> 32
isolate (source animal id): 128	> 32
isolate (source animal id): 131	> 32
isolate (source animal id): 135	> 32
isolate (source animal id): 136	> 32
isolate (source animal id): 140	> 32
isolate (source animal id): 144	> 32
isolate (source animal id): 146	> 32
isolate (source animal id): 150	> 32
isolate (source animal id): 151	> 32
isolate (source animal id): 153	> 32
isolate (source animal id): 155	> 32
isolate (source animal id): 157	> 32
isolate (source animal id): 160	> 32
isolate (source animal id): 164	> 32
isolate (source animal id): 165	> 32
isolate (source animal id): 167	> 32
isolate (source animal id): 168	> 32
isolate (source animal id): 169	> 32
isolate (source animal id): 170	> 32
isolate (source animal id): 171	> 32
isolate (source animal id): 172	> 32
isolate (source animal id): 173	> 32
isolate (source animal id): 174	> 32
isolate (source animal id): 175	> 32
isolate (source animal id): 176	> 32
isolate (source animal id): 177	> 32
isolate (source animal id): 178	> 32
isolate (source animal id): 179	32 (≈ 34.9 µM)
isolate (source animal id): 182	> 32
isolate (source animal id): 192	> 32
isolate (source animal id): 193	32 (≈ 34.9 µM)
isolate (source animal id): 195	32 (≈ 34.9 µM)
isolate (source animal id): 196	> 32
isolate (source animal id): 197	> 32
isolate (source animal id): 198	> 32
isolate (source animal id): 199	> 32
isolate (source animal id): 200	> 32
isolate (source animal id): 201	> 32
isolate (source animal id): 203	32 (≈ 34.9 µM)
isolate (source animal id): 204	> 32
isolate (source animal id): 205	> 32
isolate (source animal id): 206	> 32
isolate (source animal id): 207	32 (≈ 34.9 µM)
isolate (source animal id): 208	32 (≈ 34.9 µM)
isolate (source animal id): 209	32 (≈ 34.9 µM)
isolate (source animal id): 210	> 32
isolate (source animal id): 213	32 (≈ 34.9 µM)
isolate (source animal id): 216	> 32
isolate (source animal id): 223	> 32
isolate (source animal id): 227	32 (≈ 34.9 µM)
isolate (source animal id): 229	> 32
isolate (source animal id): 233	> 32
isolate (source animal id): 234	> 32
isolate (source animal id): 237	> 32
isolate (source animal id): 241	> 32
isolate (source animal id): 245	> 32
isolate (source animal id): 247	> 32
isolate (source animal id): 250	> 32
isolate (source animal id): 254	> 32
isolate (source animal id): 255	> 32
isolate (source animal id): 258	32 (≈ 34.9 µM)
isolate (source animal id): 261	> 32
isolate (source animal id): 262	> 32
isolate (source animal id): 269	> 32
isolate (source animal id): 270	> 32
isolate (source animal id): 274	> 32
isolate (source animal id): 275	> 32
isolate (source animal id): 276	> 32
isolate (source animal id): 277	> 32
isolate (source animal id): 278	> 32
isolate (source animal id): 279	> 32
isolate (source animal id): 280	> 32
isolate (source animal id): 284	> 32
isolate (source animal id): 285	> 32
isolate (source animal id): 287	> 32
isolate (source animal id): 290	> 32
isolate (source animal id): 294	> 32
isolate (source animal id): 295	> 32
isolate (source animal id): 296	> 32
isolate (source animal id): 307	> 32
isolate (source animal id): 310	> 32
isolate (source animal id): 311	> 32
isolate (source animal id): 312	> 32
isolate (source animal id): 313	> 32
isolate (source animal id): 315	> 32
isolate (source animal id): 316	> 32

COc1cc(NS(=O)(=O)c2ccc(N)cc2)nc(OC)n1 [sulfadimethoxine]
Details	minimum inhibitory concentration [µg/mL]
isolate (source animal id): 10	> 256
isolate (source animal id): 11	> 256
isolate (source animal id): 12	> 256
isolate (source animal id): 19	> 256
isolate (source animal id): 23	> 256
isolate (source animal id): 26	> 256
isolate (source animal id): 98	> 256
isolate (source animal id): 104	> 256
isolate (source animal id): 115	> 256
isolate (source animal id): 117	> 256
isolate (source animal id): 118	> 256
isolate (source animal id): 121	> 256
isolate (source animal id): 124	> 256
isolate (source animal id): 125	> 256
isolate (source animal id): 128	> 256
isolate (source animal id): 131	> 256
isolate (source animal id): 135	> 256
isolate (source animal id): 136	> 256
isolate (source animal id): 140	> 256
isolate (source animal id): 144	> 256
isolate (source animal id): 146	> 256
isolate (source animal id): 150	> 256
isolate (source animal id): 151	> 256
isolate (source animal id): 153	> 256
isolate (source animal id): 155	> 256
isolate (source animal id): 157	> 256
isolate (source animal id): 160	> 256
isolate (source animal id): 164	> 256
isolate (source animal id): 165	> 256
isolate (source animal id): 167	> 256
isolate (source animal id): 168	> 256
isolate (source animal id): 169	> 256
isolate (source animal id): 170	> 256
isolate (source animal id): 171	> 256
isolate (source animal id): 172	> 256
isolate (source animal id): 173	> 256
isolate (source animal id): 174	> 256
isolate (source animal id): 175	> 256
isolate (source animal id): 176	> 256
isolate (source animal id): 177	> 256
isolate (source animal id): 178	> 256
isolate (source animal id): 179	> 256
isolate (source animal id): 182	> 256
isolate (source animal id): 192	> 256
isolate (source animal id): 193	> 256
isolate (source animal id): 195	> 256
isolate (source animal id): 196	> 256
isolate (source animal id): 197	> 256
isolate (source animal id): 198	> 256
isolate (source animal id): 199	> 256
isolate (source animal id): 200	> 256
isolate (source animal id): 201	> 256
isolate (source animal id): 203	> 256
isolate (source animal id): 204	> 256
isolate (source animal id): 205	> 256
isolate (source animal id): 206	> 256
isolate (source animal id): 207	> 256
isolate (source animal id): 208	> 256
isolate (source animal id): 209	> 256
isolate (source animal id): 210	> 256
isolate (source animal id): 213	> 256
isolate (source animal id): 216	> 256
isolate (source animal id): 223	> 256
isolate (source animal id): 227	> 256
isolate (source animal id): 229	> 256
isolate (source animal id): 233	> 256
isolate (source animal id): 234	> 256
isolate (source animal id): 237	> 256
isolate (source animal id): 241	> 256
isolate (source animal id): 245	> 256
isolate (source animal id): 247	> 256
isolate (source animal id): 250	> 256
isolate (source animal id): 254	> 256
isolate (source animal id): 255	> 256
isolate (source animal id): 258	> 256
isolate (source animal id): 261	> 256
isolate (source animal id): 262	> 256
isolate (source animal id): 269	> 256
isolate (source animal id): 270	> 256
isolate (source animal id): 274	> 256
isolate (source animal id): 275	> 256
isolate (source animal id): 276	> 256
isolate (source animal id): 277	> 256
isolate (source animal id): 278	> 256
isolate (source animal id): 279	> 256
isolate (source animal id): 280	> 256
isolate (source animal id): 284	> 256
isolate (source animal id): 285	> 256
isolate (source animal id): 287	> 256
isolate (source animal id): 290	> 256
isolate (source animal id): 294	> 256
isolate (source animal id): 295	> 256
isolate (source animal id): 296	> 256
isolate (source animal id): 307	> 256
isolate (source animal id): 310	> 256
isolate (source animal id): 311	> 256
isolate (source animal id): 312	> 256
isolate (source animal id): 313	> 256
isolate (source animal id): 315	> 256
isolate (source animal id): 316	> 256
